Consider nine molecules from PubChem BioAssay AID624129 (Sanford-Burnham Center for Chemical Genomics, 2012).

For orientation: IC50 means the point on the concentration scale where inhibition reaches its midpoint. By inhibition is commonly meant the drop in the measured response relative to a control, in per cent.

Holding throughout (assay): CXCR6 receptor antagonists, dose response, cell-based, beta-arrestin, DiscoveRx, APJ panel, uHTS hits (AID 624129)
Assay [1] concerns the target Apelin receptor (Homo sapiens) (UniProt P35414). The following applies: CXCR6 beta-arrestin (DiscoveRx) antagonist cell assay, APJ.
For assay [2], the target named is Beta-galactosidase (Escherichia coli) (UniProt Q8VNN2). The following applies: CXCR6 beta-arrestin (DiscoveRx) antagonist cell assay, b-galactosidase.
Sequence of Beta-galactosidase (Escherichia coli) (Q8VNN2 whole entry, looked up): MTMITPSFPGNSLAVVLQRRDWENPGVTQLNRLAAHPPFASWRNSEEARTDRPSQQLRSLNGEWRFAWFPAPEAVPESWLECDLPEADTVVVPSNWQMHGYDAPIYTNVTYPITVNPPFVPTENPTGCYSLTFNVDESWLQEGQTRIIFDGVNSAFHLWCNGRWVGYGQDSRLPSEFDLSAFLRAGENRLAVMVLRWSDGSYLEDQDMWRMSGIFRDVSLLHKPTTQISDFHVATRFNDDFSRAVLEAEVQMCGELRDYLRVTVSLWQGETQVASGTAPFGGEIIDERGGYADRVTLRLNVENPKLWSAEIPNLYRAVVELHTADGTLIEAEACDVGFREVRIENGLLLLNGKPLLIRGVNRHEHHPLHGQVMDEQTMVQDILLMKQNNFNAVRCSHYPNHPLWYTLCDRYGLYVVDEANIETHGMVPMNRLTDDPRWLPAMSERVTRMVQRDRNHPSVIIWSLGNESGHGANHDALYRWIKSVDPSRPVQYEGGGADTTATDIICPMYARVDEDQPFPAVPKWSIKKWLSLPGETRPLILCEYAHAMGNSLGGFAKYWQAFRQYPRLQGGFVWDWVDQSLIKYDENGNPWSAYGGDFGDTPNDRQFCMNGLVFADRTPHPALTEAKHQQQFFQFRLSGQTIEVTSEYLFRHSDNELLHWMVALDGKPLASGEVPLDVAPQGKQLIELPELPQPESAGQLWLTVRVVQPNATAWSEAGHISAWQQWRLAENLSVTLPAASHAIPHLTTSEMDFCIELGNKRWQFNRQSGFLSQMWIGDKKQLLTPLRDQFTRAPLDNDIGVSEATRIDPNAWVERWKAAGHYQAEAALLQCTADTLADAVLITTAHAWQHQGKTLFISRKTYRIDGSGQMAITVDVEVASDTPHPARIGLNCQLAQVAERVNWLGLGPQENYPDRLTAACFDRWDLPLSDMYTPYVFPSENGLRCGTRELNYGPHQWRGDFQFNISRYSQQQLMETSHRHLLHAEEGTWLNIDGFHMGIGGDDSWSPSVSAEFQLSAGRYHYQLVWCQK
Assay [3] concerns the target C-C chemokine receptor type 6 (Homo sapiens) (UniProt P51684). The note with it: CXCR6 beta-arrestin (DiscoveRx) antagonist cell assay.
For assay [4], the target named is C-X-C chemokine receptor type 6 (Homo sapiens) (UniProt O00574). The following applies: CXCR6 beta-arrestin (DiscoveRx) antagonist cell assay.
Sequence of C-X-C chemokine receptor type 6 (Homo sapiens) (O00574 whole entry, looked up): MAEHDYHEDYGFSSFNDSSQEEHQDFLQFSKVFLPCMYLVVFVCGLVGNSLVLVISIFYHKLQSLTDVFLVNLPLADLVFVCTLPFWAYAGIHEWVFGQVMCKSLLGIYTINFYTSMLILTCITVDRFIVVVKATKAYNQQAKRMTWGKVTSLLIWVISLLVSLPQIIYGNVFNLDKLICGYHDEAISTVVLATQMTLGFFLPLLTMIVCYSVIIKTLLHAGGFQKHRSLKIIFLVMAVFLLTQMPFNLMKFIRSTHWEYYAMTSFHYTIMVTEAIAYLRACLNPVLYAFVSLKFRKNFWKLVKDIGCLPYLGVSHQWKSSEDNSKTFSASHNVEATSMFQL
[5] abbreviates: dose range 1, mean IC50 across replicates.
Setting [6] is: CCR6, dose range 1, mean IC50 across replicates.
[7] abbreviates: CXCR6, dose range 1, mean IC50 across replicates.
[8] abbreviates: CXCR6, run 1, dose range 2, at 80 µM (top of the series).
Setting [9] is: CXCR6, run 2, dose range 1, at 79 µM (top of the series).

Calls of active or inactive are those of the source. The rule behind the calls is not given here.

`O=C(Nc1nc(-c2ccccn2)cs1)c1cc(Cl)ccc1[N+](=O)[O-]`: the IC50 is greater than 80 µM in assay [1] (setting [5]); greater than 80 µM in assay [1] (run 2, dose range 1); greater than 80 µM in assay [1] (run 3, dose range 1); > 80 µM (inactive) in assay [2] (dose range 1); greater than 80 µM in assay [2] (setting [5]); greater than 80 µM in assay [3] (setting [6]). In addition, the IC50 in assay [3] (CCR6, run 2, dose range 1) was greater than 80 µM; in assay [4] (CXCR6, dose range 1) it was > 80 µM (inactive); in assay [4] (setting [7]), greater than 80 µM; in assay [4] (CXCR6, run 2, dose range 1) it was greater than 80 µM. For the same molecule, the inhibition in assay [4] (setting [8]) was -48.8%.
For `CCS(=O)(=O)c1ncc(Cl)c(C(=O)Nc2ccc(S(=O)(=O)N(C)c3ccccc3)cc2)n1`, the IC50 in assay [1] (dose range 1) was 5.02 µM; in assay [1] (setting [5]) it was 5.55 µM; in assay [1] (run 2, dose range 1), 5.84 µM; in assay [1] (run 3, dose range 1), 5.8 µM; in assay [2] (dose range 1) it was > 80 µM (inactive); in assay [2] (setting [5]), greater than 80 µM. Moreover, the IC50 in assay [3] (CCR6, dose range 1) was 4.87 µM; in assay [3] (setting [6]), 4.8 µM; in assay [3] (CCR6, run 2, dose range 1), 4.74 µM; in assay [4] (CXCR6, dose range 1), 6.29 µM; in assay [4] (setting [7]), 6.61 µM; in assay [4] (CXCR6, run 1, dose range 2) it was 6.87 µM. Moreover, the IC50 is 6.54 µM in assay [4] (CXCR6, run 2, dose range 1) and 6.76 µM in assay [4] (CXCR6, run 2, dose range 2).
For `O=[N+]([O-])c1c(Nc2cccc(O)c2)cc(Cl)c2nonc12`, the IC50 in assay [1] (dose range 1) is 18 µM; in assay [1] (setting [5]) it was 19.1 µM; in assay [1] (run 2, dose range 1), 17 µM; in assay [1] (run 3, dose range 1), 22.2 µM; in assay [2] (dose range 1), > 80 µM (inactive); in assay [2] (setting [5]), greater than 80 µM. The IC50 in assay [3] (CCR6, dose range 1) was 12.2 µM; in assay [3] (setting [6]), 13.3 µM; in assay [3] (CCR6, run 2, dose range 1), 14.3 µM; in assay [4] (setting [7]), 13.8 µM; in assay [4] (CXCR6, run 2, dose range 1), 11.3 µM. The IC50 entry in assay [4] (CXCR6, dose range 1) was “inactive”. Moreover, the inhibition in assay [4] (setting [8]) came to 113%.
As for `CC(=O)OCCCNc1cc(Sc2ccc(Cl)cc2)c2nonc2c1[N+](=O)[O-]`, the IC50 in assay [1] (dose range 1) is 5.08 µM; in assay [1] (setting [5]) it was 4.65 µM; in assay [1] (run 2, dose range 1), 4.27 µM; in assay [1] (run 3, dose range 1), 4.6 µM; in assay [2] (dose range 1), 39.8 µM; in assay [2] (setting [5]), 39.8 µM. Also, the IC50 was 1.97 µM in assay [3] (CCR6, dose range 1); 2.12 µM in assay [3] (setting [6]); 2.27 µM in assay [3] (CCR6, run 2, dose range 1); 3.22 µM in assay [4] (CXCR6, dose range 1); 3.05 µM in assay [4] (setting [7]); 2.88 µM in assay [4] (CXCR6, run 2, dose range 1). Also, the inhibition in assay [4] (setting [8]) was 145%.
As to `C/C(=N\NC(=O)C(C)Oc1ccc([N+](=O)[O-])cc1)c1ccccn1` (configuration not stated), the IC50 is 3.43 µM in assay [1] (dose range 1); 8.09 µM in assay [1] (setting [5]); 3.41 µM in assay [1] (run 2, dose range 1); 17.4 µM in assay [1] (run 3, dose range 1); > 80 µM (inactive) in assay [2] (dose range 1); greater than 80 µM in assay [2] (setting [5]). In addition, the IC50 was 2.61 µM in assay [3] (CCR6, dose range 1); 3.11 µM in assay [3] (setting [6]); 3.6 µM in assay [3] (CCR6, run 2, dose range 1); 6.22 µM in assay [4] (CXCR6, dose range 1); 3.92 µM in assay [4] (setting [7]); 2.75 µM in assay [4] (CXCR6, run 1, dose range 2). The IC50 in assay [4] (CXCR6, run 2, dose range 1) came out at 4.5 µM; in assay [4] (CXCR6, run 2, dose range 2) it was 2.23 µM.
In the case of `CN(O)C(=S)c1ccccc1`, the IC50 in assay [1] (dose range 1) was 2.41 µM; in assay [1] (setting [5]) it was 4.68 µM; in assay [1] (run 2, dose range 1) it was 6.23 µM; in assay [1] (run 3, dose range 1) it was 5.39 µM; in assay [2] (dose range 1) it was > 80 µM (inactive); in assay [2] (setting [5]), greater than 80 µM. The IC50 in assay [3] (CCR6, dose range 1) was 0.724 µM; in assay [3] (setting [6]), 1.31 µM; in assay [3] (CCR6, run 2, dose range 1), 1.89 µM; in assay [4] (CXCR6, dose range 1), 1.67 µM; in assay [4] (setting [7]) it was 1.58 µM; in assay [4] (CXCR6, run 2, dose range 1), 1.48 µM. Besides, the inhibition in assay [4] (CXCR6, run 1, dose range 2, at 40 µM (top of the series)) worked out at 90.8%.
Turning to `COC(=O)c1ccc2c(c1)C(C)(C)C(/C=C/c1ccc(OC)c(OC)c1OC)=[N+]2C`, the IC50 in assay [1] (dose range 1) was 15.1 µM; in assay [1] (setting [5]) it was 15 µM; in assay [1] (run 2, dose range 1) it was 14.3 µM; in assay [1] (run 3, dose range 1) it was 15.8 µM; in assay [2] (dose range 1), > 80 µM (inactive); in assay [2] (setting [5]), greater than 80 µM. Further, the IC50 in assay [3] (CCR6, dose range 1) was 7.5 µM; in assay [3] (setting [6]), 9.27 µM; in assay [3] (CCR6, run 2, dose range 1), 11 µM; in assay [4] (CXCR6, dose range 1), 11.4 µM; in assay [4] (setting [7]), 9.1 µM; in assay [4] (CXCR6, run 1, dose range 2), 7.35 µM. For the same molecule, the IC50 in assay [4] (CXCR6, run 2, dose range 1) was found to be 10.4 µM; in assay [4] (CXCR6, run 2, dose range 2), 7.23 µM.
Regarding `C=CC[n+]1c(-c2ccc(Cl)cc2Cl)csc1Nc1c(C)n(C)n(-c2ccccc2)c1=O`, the outcome in assay [4] (CXCR6, dose range 1) was inactive. The IC50 turned out to be 40 µM in assay [4] (setting [7]); 29.2 µM in assay [4] (CXCR6, run 1, dose range 2); 50.8 µM in assay [4] (CXCR6, run 2, dose range 2). Besides, the inhibition in assay [4] (setting [9]) came to 101%.
For the molecule `C=CCn1c(=O)c2c(nc3n2CC(C)CN3c2cccc(OC)c2)n(C)c1=O` (configuration not stated), the outcome in assay [4] (CXCR6, dose range 1) was inactive. In addition, the half-maximal inhibitory concentration (IC50) in assay [4] (setting [7]) was determined as 19.5 µM; in assay [4] (CXCR6, run 1, dose range 2), 18.3 µM; in assay [4] (CXCR6, run 2, dose range 2) it was 20.7 µM. Moreover, the inhibition in assay [4] (setting [9]) was determined as 66.1%.
